Source: publication doi:10.1101/2020.06.11.145995v1 (biorxiv, 2020)
Where two headings read alike, the source gives them in different places.

How the values were obtained:
Experiment in all cases: biochemical
NEK3 = NEK3 (Homo sapiens, UniProt P51956)
TRKC = TRKC (Homo sapiens, UniProt Q16288)
RSK3 = RSK3 (Homo sapiens, UniProt Q15349)
TRKA = TRKA (Homo sapiens, UniProt P04629)
SNARK = SNARK (Homo sapiens, UniProt Q9H093)
PAK2 = PAK2 (Homo sapiens, UniProt Q13177)
VRK2 = VRK2 (Homo sapiens, UniProt Q86Y07)
SYK = SYK (Homo sapiens, UniProt P43405)
PLK1 = PLK1 (Homo sapiens, UniProt P53350)
PLK1, sequence (P53350 whole entry): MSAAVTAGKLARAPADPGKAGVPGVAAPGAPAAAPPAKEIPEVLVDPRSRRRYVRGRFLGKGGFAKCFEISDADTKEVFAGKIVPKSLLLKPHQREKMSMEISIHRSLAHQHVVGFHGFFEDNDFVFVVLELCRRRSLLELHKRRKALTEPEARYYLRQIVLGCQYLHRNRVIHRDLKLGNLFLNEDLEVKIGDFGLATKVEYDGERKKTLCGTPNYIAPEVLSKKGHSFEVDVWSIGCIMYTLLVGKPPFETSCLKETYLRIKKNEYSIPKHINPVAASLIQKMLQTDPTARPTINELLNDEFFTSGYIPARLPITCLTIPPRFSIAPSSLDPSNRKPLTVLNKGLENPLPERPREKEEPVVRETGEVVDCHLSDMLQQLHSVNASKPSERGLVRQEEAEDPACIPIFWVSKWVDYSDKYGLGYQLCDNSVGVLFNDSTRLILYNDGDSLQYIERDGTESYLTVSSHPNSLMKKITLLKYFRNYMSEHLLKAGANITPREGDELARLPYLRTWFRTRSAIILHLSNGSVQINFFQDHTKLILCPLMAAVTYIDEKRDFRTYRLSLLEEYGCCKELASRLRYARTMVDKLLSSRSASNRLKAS

TXK = TXK (Homo sapiens, UniProt P42681)
PFTAIRE2 = PFTAIRE2 (Homo sapiens, UniProt Q96Q40)
NEK1 = NEK1 (Homo sapiens, UniProt Q96PY6)
PAK3 = PAK3 (Homo sapiens, UniProt O75914)
PIK3CA(M1043I) = target: PIK3CA(M1043I (Homo sapiens, UniProt P42336, M1043I))
TTK = TTK (Homo sapiens, UniProt P33981)
SLK = SLK (Homo sapiens, UniProt Q9H2G2)
PCTK1 = PCTK1 (Homo sapiens, UniProt Q00536)
YES = YES (Homo sapiens, UniProt P07947)
p38-delta = p38-delta (Homo sapiens, UniProt O15264)
RIPK5 = RIPK5 (Homo sapiens, UniProt Q6XUX3)
RIPK5, sequence (Q6XUX3 whole entry): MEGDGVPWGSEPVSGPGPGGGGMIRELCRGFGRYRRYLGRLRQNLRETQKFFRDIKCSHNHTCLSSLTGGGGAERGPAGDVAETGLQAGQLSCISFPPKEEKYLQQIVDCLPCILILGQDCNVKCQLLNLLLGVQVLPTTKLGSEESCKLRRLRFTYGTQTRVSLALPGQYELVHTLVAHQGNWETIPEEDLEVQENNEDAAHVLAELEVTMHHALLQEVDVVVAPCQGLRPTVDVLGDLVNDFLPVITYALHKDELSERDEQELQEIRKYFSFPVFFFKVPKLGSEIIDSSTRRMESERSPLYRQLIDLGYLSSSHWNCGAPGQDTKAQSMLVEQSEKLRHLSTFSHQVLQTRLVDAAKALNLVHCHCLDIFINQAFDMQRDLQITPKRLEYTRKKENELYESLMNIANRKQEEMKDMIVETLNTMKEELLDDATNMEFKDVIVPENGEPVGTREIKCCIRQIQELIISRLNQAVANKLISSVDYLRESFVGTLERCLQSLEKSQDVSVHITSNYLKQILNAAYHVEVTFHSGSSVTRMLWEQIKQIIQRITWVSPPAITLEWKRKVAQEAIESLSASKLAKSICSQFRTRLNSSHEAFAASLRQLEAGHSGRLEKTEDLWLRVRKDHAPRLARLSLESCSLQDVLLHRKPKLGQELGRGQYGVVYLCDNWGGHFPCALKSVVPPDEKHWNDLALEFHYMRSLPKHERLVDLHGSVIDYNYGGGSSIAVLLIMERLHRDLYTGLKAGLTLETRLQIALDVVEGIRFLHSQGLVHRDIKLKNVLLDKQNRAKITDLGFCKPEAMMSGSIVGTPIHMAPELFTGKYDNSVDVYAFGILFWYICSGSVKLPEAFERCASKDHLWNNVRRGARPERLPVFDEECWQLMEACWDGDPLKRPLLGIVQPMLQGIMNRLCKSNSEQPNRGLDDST

PFTK1 = PFTK1 (Homo sapiens, UniProt O94921)
AAK1 = AAK1 (Homo sapiens, UniProt Q2M2I8)
RSK2 = RSK2 (Homo sapiens, UniProt P51812)
p38-beta = p38-beta (Homo sapiens, UniProt Q15759)
RSK4 = RSK4 (Homo sapiens, UniProt Q9UK32)
RSK4, sequence (Q9UK32 whole entry): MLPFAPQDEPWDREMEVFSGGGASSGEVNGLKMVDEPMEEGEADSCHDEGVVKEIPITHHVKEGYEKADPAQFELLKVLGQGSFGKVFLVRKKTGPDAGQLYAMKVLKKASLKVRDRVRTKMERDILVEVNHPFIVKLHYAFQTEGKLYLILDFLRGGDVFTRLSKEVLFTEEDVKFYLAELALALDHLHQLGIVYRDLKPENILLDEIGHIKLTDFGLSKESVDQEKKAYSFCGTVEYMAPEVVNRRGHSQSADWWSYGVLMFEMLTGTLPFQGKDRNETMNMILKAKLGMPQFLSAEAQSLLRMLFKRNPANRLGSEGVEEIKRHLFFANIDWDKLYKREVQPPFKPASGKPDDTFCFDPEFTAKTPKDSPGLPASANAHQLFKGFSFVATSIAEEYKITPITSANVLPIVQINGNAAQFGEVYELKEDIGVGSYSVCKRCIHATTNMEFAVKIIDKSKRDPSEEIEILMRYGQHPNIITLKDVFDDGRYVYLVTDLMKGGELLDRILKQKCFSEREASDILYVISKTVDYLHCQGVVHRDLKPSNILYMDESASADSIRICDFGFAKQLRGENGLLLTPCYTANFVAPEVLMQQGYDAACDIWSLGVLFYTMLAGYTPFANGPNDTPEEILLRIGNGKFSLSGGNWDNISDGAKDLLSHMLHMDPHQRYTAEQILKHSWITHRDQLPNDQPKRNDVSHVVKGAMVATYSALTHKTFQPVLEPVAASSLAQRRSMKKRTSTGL

PRKD2 = PRKD2 (Homo sapiens, UniProt Q9BZL6)
NLK = NLK (Homo sapiens, UniProt Q9UBE8)
PYK2 = PYK2 (Homo sapiens, UniProt Q14289)
PYK2, sequence (Q14289 whole entry): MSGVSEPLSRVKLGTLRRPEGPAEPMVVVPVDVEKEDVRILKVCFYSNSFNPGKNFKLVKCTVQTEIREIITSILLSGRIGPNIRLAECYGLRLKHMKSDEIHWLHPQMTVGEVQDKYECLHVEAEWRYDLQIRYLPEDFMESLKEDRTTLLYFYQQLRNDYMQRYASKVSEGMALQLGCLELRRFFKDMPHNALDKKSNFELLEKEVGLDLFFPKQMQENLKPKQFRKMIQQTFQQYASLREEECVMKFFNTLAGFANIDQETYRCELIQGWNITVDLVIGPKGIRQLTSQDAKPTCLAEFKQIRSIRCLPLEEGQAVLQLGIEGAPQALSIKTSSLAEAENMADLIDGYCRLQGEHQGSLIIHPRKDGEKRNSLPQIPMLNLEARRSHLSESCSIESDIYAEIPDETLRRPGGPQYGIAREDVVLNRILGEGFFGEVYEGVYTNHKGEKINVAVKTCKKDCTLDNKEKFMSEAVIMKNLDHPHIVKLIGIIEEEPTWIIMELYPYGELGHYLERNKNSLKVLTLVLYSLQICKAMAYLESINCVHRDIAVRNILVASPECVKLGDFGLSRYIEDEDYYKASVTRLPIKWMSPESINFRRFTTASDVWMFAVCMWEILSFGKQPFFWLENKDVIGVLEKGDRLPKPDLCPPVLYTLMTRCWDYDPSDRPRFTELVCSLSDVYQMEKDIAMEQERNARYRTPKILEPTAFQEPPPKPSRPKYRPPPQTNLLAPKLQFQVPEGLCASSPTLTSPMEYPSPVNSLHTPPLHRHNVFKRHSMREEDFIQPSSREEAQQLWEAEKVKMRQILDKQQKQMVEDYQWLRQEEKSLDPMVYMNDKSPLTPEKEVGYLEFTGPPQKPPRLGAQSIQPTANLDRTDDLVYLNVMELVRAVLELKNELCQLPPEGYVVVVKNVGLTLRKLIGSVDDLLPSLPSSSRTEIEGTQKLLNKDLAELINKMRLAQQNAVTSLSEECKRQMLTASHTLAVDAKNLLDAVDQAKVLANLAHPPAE

YSK4 = YSK4 (Homo sapiens, UniProt Q56UN5)
[1] = read-out: CPT-1-70-1 (1μM) % control
[2] = read-out: CPT-1-70-1 (1μM) % control, Kin.Dom.1-N-terminal
[3] = read-out: CPT-1-70-1 (1μM) % control, Kin.Dom.2-C-terminal
[4] = read-out: HYJ-2-002-1 (1μM) % control
[5] = read-out: HYJ-2-002-1 (1μM) % control, Kin.Dom.1-N-terminal
[6] = read-out: HYJ-2-002-1 (1μM) % control, Kin.Dom.2-C-terminal

RSK3, sequence (Q15349 whole entry): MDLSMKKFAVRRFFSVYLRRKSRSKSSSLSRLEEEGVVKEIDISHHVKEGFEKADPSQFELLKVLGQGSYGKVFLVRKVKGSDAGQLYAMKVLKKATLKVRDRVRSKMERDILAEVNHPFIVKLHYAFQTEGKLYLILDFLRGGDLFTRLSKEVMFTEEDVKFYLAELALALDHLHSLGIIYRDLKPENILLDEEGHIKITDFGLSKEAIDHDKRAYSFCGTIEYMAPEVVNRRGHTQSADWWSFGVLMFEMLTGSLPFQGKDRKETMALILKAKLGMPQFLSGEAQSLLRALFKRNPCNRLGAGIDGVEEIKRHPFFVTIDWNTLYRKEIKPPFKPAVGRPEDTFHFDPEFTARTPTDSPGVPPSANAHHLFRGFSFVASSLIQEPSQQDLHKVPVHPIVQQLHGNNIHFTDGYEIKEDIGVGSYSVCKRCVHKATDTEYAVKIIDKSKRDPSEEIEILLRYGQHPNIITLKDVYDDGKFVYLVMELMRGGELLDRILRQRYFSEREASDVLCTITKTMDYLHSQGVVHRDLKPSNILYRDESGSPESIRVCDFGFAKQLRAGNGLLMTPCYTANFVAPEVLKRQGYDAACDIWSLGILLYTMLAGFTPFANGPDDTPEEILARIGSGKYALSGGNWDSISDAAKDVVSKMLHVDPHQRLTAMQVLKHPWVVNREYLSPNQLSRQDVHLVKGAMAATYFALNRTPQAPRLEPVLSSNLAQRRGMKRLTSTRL
TRKC, sequence (Q16288 whole entry): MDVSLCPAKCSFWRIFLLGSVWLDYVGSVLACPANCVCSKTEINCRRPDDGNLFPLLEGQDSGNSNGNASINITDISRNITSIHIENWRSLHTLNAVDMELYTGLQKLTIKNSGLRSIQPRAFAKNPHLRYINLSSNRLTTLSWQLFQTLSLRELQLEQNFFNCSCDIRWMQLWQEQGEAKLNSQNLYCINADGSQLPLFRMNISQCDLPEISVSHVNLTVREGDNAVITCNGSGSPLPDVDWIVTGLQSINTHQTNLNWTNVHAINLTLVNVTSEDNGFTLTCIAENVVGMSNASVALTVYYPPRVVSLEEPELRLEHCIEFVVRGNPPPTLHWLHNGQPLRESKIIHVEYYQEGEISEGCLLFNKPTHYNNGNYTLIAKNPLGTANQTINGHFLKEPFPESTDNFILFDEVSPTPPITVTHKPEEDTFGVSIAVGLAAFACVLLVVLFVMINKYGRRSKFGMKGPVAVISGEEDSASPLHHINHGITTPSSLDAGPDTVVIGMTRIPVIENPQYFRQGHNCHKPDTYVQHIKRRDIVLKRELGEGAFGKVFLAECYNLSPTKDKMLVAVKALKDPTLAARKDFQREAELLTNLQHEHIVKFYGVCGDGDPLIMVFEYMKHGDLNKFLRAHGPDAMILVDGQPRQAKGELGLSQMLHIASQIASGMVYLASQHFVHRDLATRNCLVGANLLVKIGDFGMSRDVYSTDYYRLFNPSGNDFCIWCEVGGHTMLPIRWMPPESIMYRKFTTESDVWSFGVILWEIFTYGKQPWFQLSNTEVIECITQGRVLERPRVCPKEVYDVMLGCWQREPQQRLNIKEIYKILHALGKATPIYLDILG

SMILES: CN1CCN(c2ccc(Nc3nc(Oc4ccc(NC(=O)CCl)cc4)c4cc[nH]c4n3)cc2)CC1 [CPT1-70-1]
- remaining activity at 1 µM (NEK3; [1]): 68%
- remaining activity at 1 µM (TRKC; [1]): 61%
- remaining activity at 1 µM (RSK3; [2]): 66%
- remaining activity at 1 µM (RSK3; [3]): 100%
- remaining activity at 1 µM (TRKA; [1]): 30%
- remaining activity at 1 µM (SNARK; [1]): 8.5%
- remaining activity at 1 µM (PAK2; [1]): 64%
- remaining activity at 1 µM (VRK2; [1]): 100%
- remaining activity at 1 µM (SYK; [1]): 63%
- remaining activity at 1 µM (PLK1; [1]): 100%
- remaining activity at 1 µM (TXK; [1]): 4.6%
- remaining activity at 1 µM (PFTAIRE2; [1]): 100%
- remaining activity at 1 µM (NEK1; [1]): 100%
- remaining activity at 1 µM (PAK3; [1]): 50%
- remaining activity at 1 µM (PIK3CA(M1043I); [1]): 100%
- remaining activity at 1 µM (TTK; [1]): 4.8%
- remaining activity at 1 µM (SLK; [1]): 77%
- remaining activity at 1 µM (PCTK1; [1]): 100%
- remaining activity at 1 µM (YES; [1]): 17%
- remaining activity at 1 µM (p38-delta; [1]): 100%
- remaining activity at 1 µM (RIPK5; [1]): 33%
- remaining activity at 1 µM (PFTK1; [1]): 100%
- remaining activity at 1 µM (AAK1; [1]): 18%
- remaining activity at 1 µM (RSK2; [2]): 100%
- remaining activity at 1 µM (p38-beta; [1]): 100%
- remaining activity at 1 µM (RSK4; [2]): 45%
- remaining activity at 1 µM (RSK4; [3]): 100%
- remaining activity at 1 µM (PRKD2; [1]): 70%
- remaining activity at 1 µM (NLK; [1]): 100%
- remaining activity at 1 µM (PYK2; [1]): 66%
- remaining activity at 1 µM (YSK4; [1]): 0.45%

SMILES: CCN1CCN(Cc2ccc(NC(=O)c3ccc(C)c(CCc4cnc5[nH]ccc5c4OC)c3)cc2C(F)(F)F)CC1 [HYJ-2-002-1]
- remaining activity at 1 µM (NEK3; [4]): 100%
- remaining activity at 1 µM (TRKC; [4]): 8%
- remaining activity at 1 µM (RSK3; [5]): 42%
- remaining activity at 1 µM (RSK3; [6]): 73%
- remaining activity at 1 µM (TRKA; [4]): 6.6%
- remaining activity at 1 µM (SNARK; [4]): 100%
- remaining activity at 1 µM (PAK2; [4]): 99%
- remaining activity at 1 µM (VRK2; [4]): 100%
- remaining activity at 1 µM (SYK; [4]): 18%
- remaining activity at 1 µM (PLK1; [4]): 100%
- remaining activity at 1 µM (TXK; [4]): 2.1%
- remaining activity at 1 µM (PFTAIRE2; [4]): 94%
- remaining activity at 1 µM (NEK1; [4]): 82%
- remaining activity at 1 µM (PAK3; [4]): 100%
- remaining activity at 1 µM (PIK3CA(M1043I); [4]): 100%
- remaining activity at 1 µM (TTK; [4]): 64%
- remaining activity at 1 µM (SLK; [4]): 9.8%
- remaining activity at 1 µM (PCTK1; [4]): 100%
- remaining activity at 1 µM (YES; [4]): 0.55%
- remaining activity at 1 µM (p38-delta; [4]): 66%
- remaining activity at 1 µM (RIPK5; [4]): 86%
- remaining activity at 1 µM (PFTK1; [4]): 100%
- remaining activity at 1 µM (AAK1; [4]): 100%
- remaining activity at 1 µM (RSK2; [5]): 100%
- remaining activity at 1 µM (p38-beta; [4]): 0.35%
- remaining activity at 1 µM (RSK4; [5]): 100%
- remaining activity at 1 µM (RSK4; [6]): 28%
- remaining activity at 1 µM (PRKD2; [4]): 42%
- remaining activity at 1 µM (NLK; [4]): 28%
- remaining activity at 1 µM (PYK2; [4]): 21%
- remaining activity at 1 µM (YSK4; [4]): 0.45%
